From ChEMBL document CHEMBL5154887, “Novel CRBN-Recruiting Proteolysis-Targeting Chimeras as Degraders of Stimulator of Interferon Genes with In Vivo Anti-Inflammatory Efficacy” (J Med Chem, 2022)

Experiments:
[1] = target: T1, Protein cereblon/Stimulator of interferon genes protein (Homo sapiens, UniProt Q96SW2+Q86WV6); test: Protac activity at CRBN/STING in human THP-1 cells assessed as increase in STING degradation at 10 uM incubated for 48 hrs by Western blot analysis relative to control; assay type: cell-based
Target sequence in this assay (Q86WV6 whole entry, looked up): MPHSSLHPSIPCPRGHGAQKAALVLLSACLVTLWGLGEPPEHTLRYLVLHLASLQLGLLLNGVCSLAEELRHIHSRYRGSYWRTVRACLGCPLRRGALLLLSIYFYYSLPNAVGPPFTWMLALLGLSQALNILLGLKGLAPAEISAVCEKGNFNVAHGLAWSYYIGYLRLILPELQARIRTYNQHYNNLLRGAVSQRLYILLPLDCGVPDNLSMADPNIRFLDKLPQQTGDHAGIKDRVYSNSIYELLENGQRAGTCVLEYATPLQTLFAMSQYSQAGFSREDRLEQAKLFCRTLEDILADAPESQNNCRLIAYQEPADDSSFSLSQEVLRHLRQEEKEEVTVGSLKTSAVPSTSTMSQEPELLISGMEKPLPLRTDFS
Target sequence in this assay (Q96SW2 whole entry, looked up): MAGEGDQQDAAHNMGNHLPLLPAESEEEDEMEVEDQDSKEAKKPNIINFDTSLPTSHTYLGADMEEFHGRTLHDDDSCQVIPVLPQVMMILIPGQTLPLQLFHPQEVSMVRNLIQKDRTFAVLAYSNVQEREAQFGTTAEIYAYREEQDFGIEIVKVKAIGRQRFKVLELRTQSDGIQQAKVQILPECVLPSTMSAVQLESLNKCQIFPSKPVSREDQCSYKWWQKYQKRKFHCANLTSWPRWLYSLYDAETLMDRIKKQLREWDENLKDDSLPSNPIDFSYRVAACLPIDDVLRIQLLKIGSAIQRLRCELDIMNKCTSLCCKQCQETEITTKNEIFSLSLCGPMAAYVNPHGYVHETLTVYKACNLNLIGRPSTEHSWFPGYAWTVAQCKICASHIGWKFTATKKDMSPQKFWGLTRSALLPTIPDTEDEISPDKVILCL

[2] = test system: L02; test: Cytotoxicity against human L02 cells assessed as reduction in cell viability at <10 uM by MTT assay; assay type: toxicity, cell-based; settings: l02, 10 µM
[3] = target: T1, Protein cereblon/Stimulator of interferon genes protein; test: Protac activity at CRBN/STING in human THP-1 cells assessed as increase in STING degradation incubated for 48 hrs by Western blot analysis; assay type: cell-based
Target sequence in this assay (Q96SW2 whole entry): as the sequence (Q96SW2 whole entry, looked up) above
Target sequence in this assay (Q86WV6 whole entry): as the sequence (Q86WV6 whole entry, looked up) above

[4] = Cytotoxicity against HEK293-A cells assessed as reduction in cell viability at <10 uM by MTT assay; assay type: toxicity, cell-based; settings: human
[5] = Cytotoxicity against mouse C17.2 cells assessed as reduction in cell viability at <10 uM by MTT assay; assay type: toxicity, cell-based; settings: c17.2, 10 µM

Activity [1]: 22%
DC50 [3]: > 10 µM
SMILES: O=C(/C=C/C(=O)Nc1ccc(NC(=O)c2ccc([N+](=O)[O-])o2)cc1)NCCCCNc1cccc2c1C(=O)N(C1CCC(=O)NC1=O)C2=O (stereo not given)
Activity [2]: Non-Toxic
Activity [4]: Non-Toxic
Activity [5]: Non-Toxic
